The values that follow come from ChEMBL document CHEMBL1759962, “Anti-inflammatory effect of soyasaponins through suppressing nitric oxide production in LPS-stimulated RAW 264.7 cells by attenuation of NF-κB-mediated nitric oxide synthase expression” (Bioorg Med Chem Lett, 2011).

In data set [1] the target is T1, Nitric oxide synthase, inducible (Mus musculus) (UniProt P29477).
T1 sequence (whole entry): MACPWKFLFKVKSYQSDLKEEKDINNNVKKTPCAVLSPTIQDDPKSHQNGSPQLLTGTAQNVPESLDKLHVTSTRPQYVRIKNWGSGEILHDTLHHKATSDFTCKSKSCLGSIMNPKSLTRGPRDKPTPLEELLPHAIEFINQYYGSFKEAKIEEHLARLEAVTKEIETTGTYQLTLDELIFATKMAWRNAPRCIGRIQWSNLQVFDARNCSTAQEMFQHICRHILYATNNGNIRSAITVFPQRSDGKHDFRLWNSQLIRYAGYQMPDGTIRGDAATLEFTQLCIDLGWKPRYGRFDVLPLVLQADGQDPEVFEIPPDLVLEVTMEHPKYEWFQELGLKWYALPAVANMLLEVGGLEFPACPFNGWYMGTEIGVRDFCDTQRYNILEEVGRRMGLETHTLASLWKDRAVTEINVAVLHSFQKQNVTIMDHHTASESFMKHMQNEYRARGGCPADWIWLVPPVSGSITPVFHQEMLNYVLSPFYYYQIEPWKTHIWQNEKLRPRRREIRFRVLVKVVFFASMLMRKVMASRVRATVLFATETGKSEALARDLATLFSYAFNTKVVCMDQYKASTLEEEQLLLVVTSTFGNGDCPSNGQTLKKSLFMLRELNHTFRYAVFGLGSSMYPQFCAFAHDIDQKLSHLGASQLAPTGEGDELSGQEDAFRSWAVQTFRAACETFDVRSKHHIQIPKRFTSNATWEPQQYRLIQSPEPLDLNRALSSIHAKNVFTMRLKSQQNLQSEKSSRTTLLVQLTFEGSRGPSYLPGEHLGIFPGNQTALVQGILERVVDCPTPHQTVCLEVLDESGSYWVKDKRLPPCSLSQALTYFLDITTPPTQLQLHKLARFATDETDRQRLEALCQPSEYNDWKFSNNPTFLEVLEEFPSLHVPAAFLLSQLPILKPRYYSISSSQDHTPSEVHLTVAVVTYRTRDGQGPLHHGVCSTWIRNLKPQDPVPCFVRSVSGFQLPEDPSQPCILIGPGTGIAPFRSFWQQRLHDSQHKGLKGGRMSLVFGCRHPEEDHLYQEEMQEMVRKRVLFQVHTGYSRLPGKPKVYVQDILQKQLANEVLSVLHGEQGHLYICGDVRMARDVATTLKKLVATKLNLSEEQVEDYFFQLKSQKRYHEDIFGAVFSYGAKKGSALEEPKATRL
Kind of data set: Inhibition of iNOS-mediated nitric oxide production in LPS-stimulated mouse RAW264.7 cells measured after 24 hrs by Griess reaction method. Type of data set: cell-based. For orientation: The Griess reaction detects nitrite, a stable product of nitric oxide.

The subject of data set [2] is RAW264.7. Kind of data set: Cytotoxicity against mouse RAW264.7 cells at 25 to 200 ug/ml after 24 hrs by MTT assay. To be noted: raw264.7, 24 h. Type of data set: cell-based.
The target of data set [3] is T1, Nitric oxide synthase, inducible (Mus musculus). Put plainly: Inhibition of iNOS activity in LPS-stimulated mouse RAW264.7 cells assessed as conversion of L-[…] arginine to L-[3H] citruline per mg of protein after 24 hrs. Type of data set: cell-based.
The target is the same in data set [4]. Kind of data set: Inhibition of iNOS activity in LPS-stimulated mouse RAW264.7 cells assessed as conversion of L-[…] arginine to L-[3H] citruline per mg of protein at 200 ug/ml after 24 hrs. It is filed as cell-based.
Data set [5] has the same target. Kind of data set: Inhibition of iNOS activity in LPS-stimulated mouse RAW264.7 cells assessed as conversion of L-[…] arginine to L-[3H] citruline per mg of protein at 100 ug/ml after 24 hrs. It is filed as cell-based.
For data set [6] the target is unchanged. Kind of data set: Inhibition of iNOS activity in LPS-stimulated mouse RAW264.7 cells assessed as conversion of L-[…] arginine to L-[3H] citruline per mg of protein at 50 ug/ml after 24 hrs. It is filed as cell-based.
Data set [7] has the same target. Put plainly: Inhibition of iNOS activity in LPS-stimulated mouse RAW264.7 cells assessed as conversion of L-[…] arginine to L-[3H] citruline per mg of protein at 25 ug/ml after 24 hrs. Type of data set: cell-based.
The test system of data set [8] is RAW264.7. Kind of data set: Inhibition of iNOS mRNA expression in LPS-stimulated mouse RAW264.7 cells at 25 ug/ml after 24 hrs by real time fluorescent quantitative real time PCR relative to negative control. Type of data set: functional. Background: Real-time PCR tracks product formation cycle by cycle.
Data set [9] has as its system RAW264.7. Kind of data set: Inhibition of iNOS mRNA expression in LPS-stimulated mouse RAW264.7 cells at 50 ug/ml after 24 hrs by real time fluorescent quantitative real time PCR relative to negative control. It is filed as functional.
In data set [10] the test system is RAW264.7. Kind of data set: Inhibition of iNOS mRNA expression in LPS-stimulated mouse RAW264.7 cells at 100 ug/ml after 24 hrs by real time fluorescent quantitative real time PCR relative to negative control. It is filed as functional.
Data set [11] has as its system RAW264.7. Put plainly: Inhibition of iNOS mRNA expression in LPS-stimulated mouse RAW264.7 cells at 200 ug/ml after 24 hrs by real time fluorescent quantitative real time PCR relative to negative control. It is filed as functional.
In data set [12] the test system is RAW264.7. Kind of data set: Antiinflammatory activity in mouse RAW264.7 cells assessed as inhibition of LPS-induced TNFalpha release by ELISA. It is filed as functional, cell-based.
The subject of data set [13] is RAW264.7. Kind of data set: Antiinflammatory activity in mouse RAW264.7 cells assessed as inhibition of LPS-induced IL-6 release by ELISA. It is filed as functional, cell-based. On the technique in general: An ELISA detects its analyte on a solid surface through an enzyme-linked reagent.
In data set [14] the test system is RAW264.7. Put plainly: Antiinflammatory activity in mouse RAW264.7 cells assessed as inhibition of LPS-induced IL-1 release by ELISA. It is filed as functional, cell-based.
In data set [15] the test system is RAW264.7. Kind of data set: Inhibition of LPS-induced NF-kappaB activation in mouse RAW264.7 cells expressing pNF-kappaB-LUC at 25 to 200 ug/ml after 24 hrs by luciferase reporter gene assay relative to unstimulated cells. It is filed as cell-based.
Data set [16] deals with T1, Nitric oxide synthase, inducible (Mus musculus). Put plainly: Inhibition of iNOS-mediated nitric oxide production in LPS-stimulated mouse RAW264.7 cells at 10 ug/ml measured after 24 hrs by Griess reaction method. It is filed as cell-based.
Data set [17] has the same target. Kind of data set: Inhibition of iNOS activity in LPS-stimulated mouse RAW264.7 cells assessed as conversion of L-[…] arginine to L-[3H] citruline per mg of protein at 10 ug/ml after 24 hrs. Type of data set: cell-based.
For data set [18] the target is unchanged. Put plainly: Inhibition of iNOS-mediated nitric oxide production in LPS-stimulated mouse RAW264.7 cells at 25 to 200 ug/ml measured after 24 hrs by Griess reaction method. It is filed as cell-based.

The source made the active and inactive calls. The rule behind the calls is not given here.

Turning to `C[C@@H]1O[C@@H](O[C@H]2[C@H](O[C@H]3[C@H](O[C@H]4CC[C@@]5(C)[C@@H](CC[C@]6(C)[C@@H]5CC=C5[C@@H]7CC(C)(C)C[C@@H](O)[C@]7(C)CC[C@]56C)[C@@]4(C)CO)O[C@H](C(=O)O)[C@@H](O)[C@@H]3O)O[C@H](CO)[C@H](O)[C@@H]2O)[C@H](O)[C@H](O)[C@H]1O` [SOYASAPONIN I], the inhibition entry (in data set [1]; in [3]; in the data set on RAW264.7 [15]) was “Dose-dependent effect” in each case. Moreover, the Activity result in the data set on RAW264.7 [2] was “Non-toxic”; in data set [4], 9.2 pmol/min; in data set [5], 11.7 pmol/min; in data set [6], 16.6 pmol/min; in data set [7], 24 pmol/min. For the same molecule, the “fold change (FC)” value in the data set with RAW264.7 [8] stood at 11.1; in the data set with RAW264.7 [9] it was 8.8; in the data set on RAW264.7 [10], 6.8; in the data set with RAW264.7 [11], 5.6. Moreover, the inhibition entry in the data set with RAW264.7 [12] was “Active”. The inhibition entry in the data set with RAW264.7 [13] and in the data set on RAW264.7 [14] was “inactive” each time.
Turning to `CC1(C)C[C@H]2C3=CC[C@@H]4[C@@]5(C)CC[C@H](O[C@@H]6O[C@H](C(=O)O)[C@@H](O)[C@H](O)[C@H]6O[C@@H]6O[C@H](CO)[C@@H](O)[C@@H](O)[C@H]6O)[C@](C)(CO)[C@@H]5CC[C@@]4(C)[C@]3(C)CC[C@@]2(C)[C@H](O[C@@H]2OC[C@H](O)[C@@H](O)[C@H]2O[C@@H]2O[C@H](CO)[C@@H](O)[C@@H](O)[C@H]2O)[C@@H]1O` [SOYASAPONIN A2], the inhibition entry (in data set [1]; in data set [3]; in the data set on RAW264.7 [15]) was “Dose-dependent effect” in each case. The Activity result was “Non-toxic” in the data set on RAW264.7 [2]; 9.3 pmol/min in data set [4]; 14 pmol/min in [5]; 19 pmol/min in [6]; 23.6 pmol/min in [7]. Besides, the “fold change (FC)” value in the data set on RAW264.7 [8] was determined as 11.4; in the data set with RAW264.7 [9] it was 10.7; in the data set on RAW264.7 [10] it was 5.7; with RAW264.7 [11] it was 4.4. Further, in the data set on RAW264.7 [12], the inhibition entry was “Active”. The inhibition result in the data set with RAW264.7 [13] and in the data set on RAW264.7 [14] was “inactive” throughout.
Take `CC1(C)C[C@H]2C3=CC[C@@H]4[C@@]5(C)CC[C@H](O[C@@H]6O[C@H](C(=O)O)[C@@H](O)[C@H](O)[C@H]6O[C@@H]6O[C@H](CO)[C@H](O)[C@H](O)[C@H]6O[C@@H]6O[C@H](CO)[C@@H](O)[C@H](O)[C@H]6O)[C@](C)(CO)[C@@H]5CC[C@@]4(C)[C@]3(C)CC[C@@]2(C)[C@H](O[C@@H]2OC[C@H](O)[C@@H](O)[C@H]2O[C@@H]2O[C@H](CO)[C@@H](O)[C@@H](O)[C@H]2O)[C@@H]1O` [SOYASAPONIN A1]: the inhibition result (in [1]; in [3]; in the data set with RAW264.7 [15]) was “Dose-dependent effect” throughout. For the same molecule, the Activity result was “Non-toxic” in the data set on RAW264.7 [2]; 6.2 pmol/min in data set [4]; 11.4 pmol/min in data set [5]; 18.3 pmol/min in data set [6]; 22.3 pmol/min in data set [7]. For the same molecule, the “fold change (FC)” value was determined as 11.6 with RAW264.7 [8], 11.3 in the data set with RAW264.7 [9], 7.5 with RAW264.7 [10] and 5.1 with RAW264.7 [11]. In addition, the inhibition result in the data set on RAW264.7 [12] is “Active”. Besides, the inhibition result in the data set with RAW264.7 [13] and in the data set with RAW264.7 [14] was “inactive” each time.
With `N=C(N)NN`, the inhibition result in data set [16] is “inactive”. In data set [17], the Activity was 2.7 pmol/min.
On to `CC1(C)C[C@@H](O)[C@]2(C)CC[C@]3(C)C(=CC[C@@H]4[C@@]5(C)CC[C@H](O)[C@](C)(CO)[C@@H]5CC[C@]43C)[C@@H]2C1` [SOYASAPOGENOL B], for which the Activity entry in the data set on RAW264.7 [2] was “Non-toxic”; in data set [4] it was 27.1 pmol/min; in data set [5] it was 26.6 pmol/min; in data set [6], 26.5 pmol/min; in [7], 27.4 pmol/min. Moreover, the “fold change (FC)” value in the data set with RAW264.7 [8] is listed as 14.7; with RAW264.7 [9] it was 14.8; in the data set on RAW264.7 [10], 14.7; with RAW264.7 [11], 15.4. For the same molecule, the inhibition result (with RAW264.7 [12]; in the data set on RAW264.7 [13]; in the data set with RAW264.7 [14]; in [18]) was “inactive” each time.
Turning to `CC1(C)C[C@H]2C3=CC[C@@H]4[C@@]5(C)CC[C@H](O)[C@](C)(CO)[C@@H]5CC[C@@]4(C)[C@]3(C)CC[C@@]2(C)[C@H](O)[C@@H]1O` [SOYASAPOGENOL A], the Activity entry in the data set with RAW264.7 [2] was “Non-toxic”; in [4], 27 pmol/min; in data set [5] it was 26.9 pmol/min; in data set [6], 27 pmol/min; in [7] it was 27.7 pmol/min. In addition, the “fold change (FC)” value worked out at 15.1 in the data set with RAW264.7 [8], 15 with RAW264.7 [9], 15.1 in the data set with RAW264.7 [10] and 15.3 in the data set on RAW264.7 [11]. For the same molecule, the inhibition entry (in the data set with RAW264.7 [12]; in the data set on RAW264.7 [13]; in the data set on RAW264.7 [14]; in data set [18]) was “inactive” in each case.
